Measurements as given in patent US20140162974A1, “METHODS FOR MODULATION OF PHOSPHORUS AND FGF23” (Luitpold Pharmaceuticals, Inc., priority 2012, published 2014).
“Also recorded” adds a separate entry of the source.

Tests used:
[1] = tested on: hemoglobin, ferritin, TSAT, hepcidin; assay: Example 3 trial: erythropoiesis and iron parameters; type: in vivo, human; design: Mean increase in ferritin from baseline to highest value: unit not given here; settings: for Mean increase in hepcidin from baseline to highest value / effect of a single dose on hemoglobin and iron indices / proportion of group in which hemoglobin increased by 2.0 g/dL: in vivo; for Hemoglobin increase ≧2.0 g/dL, n (%): intention-to-treat in safety population, anytime to day 35; for Mean increase in ferritin from baseline to highest value / Mean increase in hemoglobin from baseline to highest value / Mean increase in transferrin saturation from baseline to highest value: mean ± standard error; for effect on TSAT and serum hepcidin levels: p≦0.001; for serum hepcidin levels by day 7: remained significantly elevated on day 35
Protocol: (§1) Study visits were on Days 0 (when iron was infused), 1 (24 hours after iron infusion), 7, 14, and 35. The primary objectives were to determine the effect of iron deficiency on cFGF23 and iFGF23 levels and the effect of intravenous iron on iFGF23 and cFGF23 levels.
(§2) Randomization occurred centrally via a fax-based system. […] The complete dose was infused over 15 minutes on day 0. […] An initial test dose of 25 mg was administered slowly over 5 minutes.
(§3) Laboratory testing of blood and three-hour urine collections was performed at the screening visit and on study days 0 (when iron was infused), 1 (24 hours after iron infusion), 7, 14, and 35 (see e.g., FIG. 2A). Any subject who experienced a reduction in serum phosphate below the normal range after day 0 underwent additional phosphate measurements at 14 day intervals following day 35 until the level returned to the normal reference range. Safety evaluations of all subjects included ascertainment of adverse events, physical examinations at all study visits, and laboratory assessments. Any subject who withdrew from the study received a follow-up phone call to ascertain adverse events 30 days after they received study drug.
(§4) The pre-specified primary endpoints were changes in blood and urine markers of phosphate and bone metabolism among the evaluable population, defined as those subjects with baseline and at least one post-randomization set of FGF23 and blood and urinary phosphate levels. Secondary endpoints included the proportion of subjects achieving a hemoglobin increase […] anytime between baseline and day 35, and the change from baseline to highest hemoglobin, ferritin, and TSAT anytime during the 35-day study period. Additional safety endpoints included incidence, severity, and seriousness of adverse events, and incidence of treatment-emergent abnormal clinical laboratory values in the safety population, defined as all subjects who received the study drug regardless of subsequent laboratory testing.
Blood and urine samples were sent to a central laboratory for analysis (Covance Central Laboratory Service, Indianapolis, Ind.). Hemoglobin, blood counts, iron indices, electrolytes, and serum and urinary phosphate and creatinine were measured with standard, automated, multi-analyte techniques. Urinary fractional excretion of phosphate (FEPi) was calculated from the three-hour, morning urine collections as urinary phosphate x serum creatinine/serum phosphate x urinary creatinine. Serum levels of 25-hydroxyvitamin D and 1,25-dihydroxyvitamin D were measured in duplicate by radioimmunoassay (DiaSorin, Stillwater, Minn.) with intra-assay coefficients of variation (CV)<11.6%. Plasma C-terminal FGF23 (cFGF23) was measured in duplicate in EDTA-plasma samples using a human FGF23 immunometric assay capable of detecting both the intact peptide and its C-terminal fragments (Immutopics, San Clemente, Ca) with intra-assay CV≦3.8%. Because cFGF23 testing was performed in parallel with rolling enrollment and follow-up, all cFGF23 assay plates tested combinations of baseline and post-intervention samples from multiple study participants. Serum intact FGF23 (iFGF23) was measured in batches of baseline and post-intervention samples from multiple study participants at study end using an immunometric assay that detects the intact peptide exclusively (Kyowa Medex Company, Shizuoka, Japan) with intra-assay CV<2.7%. Serum hepcidin levels were measured on days 0, 7, and 35 using an enzyme-linked immunosorbent assay (Intrinsic LifeSciences, La Jolla, Calif.) with intra-assay CV≦19%. Urinary amino acids, glucose, albumin, and beta 2 microglobulin were measured to test for the possibility of global proximal tubular dysfunction. Urinary deoxypyridinoline cross link, and serum osteocalcin and bone-specific alkaline phosphatase were measured to assess bone turnover. […]

[2] = tested on: serum phosphate, urinary fractional excretion of phosphate; assay: Example 3 trial: serum and urinary phosphate; type: in vivo, human; settings: for mean urinary FEPi over time compared with baseline: by day 7 through day 35; for course of serum phosphate after day 1: through day 35
Protocol: as §1, §2, §3, §4
Blood and urine samples were sent to a central laboratory for analysis (Covance Central Laboratory Service, Indianapolis, Ind.). Hemoglobin, blood counts, iron indices, electrolytes, and serum and urinary phosphate and creatinine were measured with standard, automated, multi-analyte techniques. Urinary fractional excretion of phosphate (FEPi) was calculated from the three-hour, morning urine collections as urinary phosphate x serum creatinine/serum phosphate x urinary creatinine. Serum levels of 25-hydroxyvitamin D and 1,25-dihydroxyvitamin D were measured in duplicate by radioimmunoassay (DiaSorin, Stillwater, Minn.) with intra-assay coefficients of variation (CV)<11.6%. Plasma C-terminal FGF23 (cFGF23) was measured in duplicate in EDTA-plasma samples using a human FGF23 immunometric assay capable of detecting both the intact peptide and its C-terminal fragments (Immutopics, San Clemente, Ca) with intra-assay CV≦3.8%. Because cFGF23 testing was performed in parallel with rolling enrollment and follow-up, all cFGF23 assay plates tested combinations of baseline and post-intervention samples from multiple study participants. Serum intact FGF23 (iFGF23) was measured in batches of baseline and post-intervention samples from multiple study participants at study end using an immunometric assay that detects the intact peptide exclusively (Kyowa Medex Company, Shizuoka, Japan) with intra-assay CV<2.7%. Serum hepcidin levels were measured on days 0, 7, and 35 using an enzyme-linked immunosorbent assay (Intrinsic LifeSciences, La Jolla, Calif.) with intra-assay CV≦19%. Urinary amino acids, glucose, albumin, and beta 2 microglobulin were measured to test for the possibility of global proximal tubular dysfunction. Urinary deoxypyridinoline cross link, and serum osteocalcin and bone-specific alkaline phosphatase were measured to assess bone turnover.
Baseline characteristics are presented as mean±standard error for continuous variables and as proportions for categorical variables. […]

| Substance | Mean increase in hepcidin from baseline to highest value [1] [ng/mL] | effect of a single dose on hemoglobin and iron indices [1] | proportion of group in which hemoglobin increased by 2.0 g/dL [1] [%] | Hemoglobin increase ≧2.0 g/dL, n (%) [1] | Mean increase in ferritin from baseline to highest value [1] | Mean increase in hemoglobin from baseline to highest value [1] [g/dL] | Mean increase in transferrin saturation from baseline to highest value [1] [%] | effect on TSAT and serum hepcidin levels [1] | serum hepcidin levels by day 7 [1] | mean urinary FEPi over time compared with baseline [2] | mean urinary fractional excretion of phosphate (FEPi) on day 1 ([2]; in vivo) | serum phosphate within 24 hours after iron administration ([2]; in vivo) | course of serum phosphate after day 1 [2] | absolute difference in proportion with hemoglobin increase, FCM vs iron dextran ([1]; 95% CI −23.2, 36.6%, p=0.79) [%] | increase in serum ferritin by day 7 compared to iron dextran ([1]; thereafter levels similar) | day of nadir in serum phosphate ([2]; FCM subjects stratified by serum phosphate<2.0 mg/dL) [days] | decrease in serum phosphate by day 7 ([2]; evaluable population) [mg/dL] | decrease in serum phosphate by day 14 ([2]; evaluable population) [mg/dL] | subjects in whom serum phosphate decreased to <2.0 mg/dL ([2]; in vivo) [subjects] | FEPi in FCM low phosphate subgroup vs the remaining ([2]; stratified analysis, peaked by day 14) |
| --- | --- | --- | --- | --- | --- | --- | --- | --- | --- | --- | --- | --- | --- | --- | --- | --- | --- | --- | --- | --- |
| iron dextran [reference compound] | 77.8 | significantly increase | 53 | 16 (53) n (%) | 189 ± 21 | 2.2 ± 0.2 | 44 ± 3.0 | increased TSAT and serum hepcidin levels significantly | significantly increased | no significant change over time | trended downwards | increased modestly | returned to near baseline levels by day 7 and remained stable for the remainder of the study | – | – | – | – | – | – | – |
| polynuclear iron (III)-hydroxide 4(R)-(poly-(1→4)-O-α-glucopyranosyl)-oxy-2(R),3(S),5(R),6-tetrahydroxy-hexanoate [FCM] | 33.4 | significantly increase | 60 | 15 (60) n (%) | 306 ± 41 | 2.0 ± 0.3 | 68 ± 6.4 | increased TSAT and serum hepcidin levels significantly | significantly increased | increased significantly compared with baseline | trended downwards | increased modestly | returning towards normal by day 35; also recorded: transient and asymptomatic reductions | 6.7 | greater increase | 14 | 0.6 | 0.7 | 10 | increased to a significantly greater extent in the low phosphate subgroup |
